The text below walks through data of patent US7947505B2, “Method for testing efficacy of antithrombotic agent” (priority 2005, dated 2011).

Read-outs that look alike come from different tables or passages of the source.

Assay [1] concerns blood. Put plainly: Thromboelastograph of blood with no antithrombotic agent administered, with heparin or argatroban with or without ADP or collagen added. The following applies: for change of the R value lengthened by anticoagulant when ADP or collagen is added: blood coagulation function normal, no antithrombotic agent administered, heparin or argatroban present. The format is cell-based, human. The source says:
(§1) The present invention is described below based on embodiments. The thromboelastograph will be described first. A thromboelastograph is an apparatus that tracks the process of blood coagulation by the clot elasticity in whole blood. […] The reaction time R representing the time when the range of the clot elasticity value reaches 2 mm, the coagulation time K representing the time when the range of the clot elasticity value reaches 20 mm, the maximum amplitude MA of the range of the clot elasticity values, the angle ANG formed by a tangent drawn on the graph of the changes in clot elasticity, and the like are obtained as numerical values based on the measurement chart, as shown in FIG. 1. The measurement procedure itself merely comprises placing the blood in a cuvette and beginning measurement. A C-TEG3000T machine made by Haemoscope of the United States was used as the thromboelastograph in the examples below.
(§2) The test method using the thromboelastograph will be described next in itemized form. 1) A thromboelastograph is used in measurement. The thromboelastograph used is one in which the measurement part has two or more channels, and the amount of fluid measured is 0.36 mL. 2) The blood of the patient being administered an antithrombotic agent is sampled by a blood sampling tube for coagulation testing. […] 3) 0.02 mL of 0.2 M calcium chloride and 0.32 mL of blood from the blood sampling tube are mixed with 0.01 mL of anticoagulant and 0.01 mL of physiological saline in the first measurement part (first channel) of the thromboelastograph. The calcium chloride neutralizes the citric acid admixed in the blood sampling tube, and coagulation begins. 4) 0.02 mL of 0.2 M calcium chloride and 0.32 mL of blood from the blood sampling tube are mixed with 0.01 mL of anticoagulant and 0.01 mL of adenosine diphosphate (ADP) or collagen in the second measurement part (second channel) of the thromboelastograph. The adenosine diphosphate (ADP) used here is 0.2 μmol of commercial reagent powder dissolved in 0.67 mL of physiological saline. Similarly, the collagen is 1 mg/mL stock solution diluted to a 36% solution by physiological saline. 5) The first channel and second channel are measured simultaneously by the thromboelastograph, and the R values measured on the thromboelastograph are compared. […] It is necessary in this case to strengthen the antithrombotic effect by measures such as increasing the dose or changing the antithrombotic agent being administered. The platelets in the second channel are believed to be readily activated by the ADP or collagen, and blood coagulation is accelerated. […] It is believed in this case that the platelets in the second channel are not readily activated by the ADP or collagen, and blood coagulation is not accelerated.
(§3) In the following examples and comparative examples, the addition of 0.02 mL of physiological saline of 0.2 M calcium chloride to the sampled blood and the addition of […] to the system without ADP or collagen added are common to all examples and are omitted from the explanations of each example and comparative example.
An example of the administration of sulpyrine will be described next. […] The measurement was the same as in Example 1. Blood with 0.1 U/mL of heparin or 0.31 μg/mL of argatroban added and blood with 8.3 μM of ADP or 10 μg/mL of collagen added to these were measured simultaneously by using a thromboelastograph.
An example of the administration of Pletaal will be described next. […] The amounts of heparin, argatroban, ADP, and collagen added were the same as in Example 2.
As a comparative example, blood obtained when no thrombotic agent (*1) had been administered was measured by thromboelastograph. Specifically, systems of heparin, ADP, and collagen added to blood that contained no thrombotic agent and, similarly, systems of argatroban, ADP, and collagen added to blood that contained no thrombotic agent were measured using a thromboelastograph.

For assay [2], the system named is whole blood. Conditions: ADP final concentration 8.3 μM or collagen 10 μg/mL, mean±standard deviation, cited from earlier work; for M A (maximum amplitude): in mm (unit assumed).
Assay [3] relates to blood. The following applies: Hep 0.1 U/mL, ARG 0.3 μg/mL, Col 10 μg/mL, ADP 8.3 μM/L, cited from earlier work.
The subject of assay [4] is blood sampled from a patient being administered an antithrombotic agent. The assay is described as follows: Thromboelastograph of blood sampled after administration of an antithrombotic agent, with anticoagulant with or without ADP or collagen added. The format is in vivo, human. Conditions: for R value: ADP 8.3 μM, collagen 10 μg/mL.
Excerpt: as §1, §2, §3
An example of the administration of aspirin as an antithrombotic agent will be described. First, 81 mg/day of aspirin was administered for three days. Blood sampled one hour after oral administration of 40.5 mg of aspirin thereafter was measured using a thromboelastograph. Specifically, thromboelastographic measurements were simultaneously carried out on the sampled blood itself, the same blood with 0.1 U/mL of heparin or 0.31 μg/mL of argatroban added, and blood obtained by adding 8.3 μM of ADP or 10 μg/mL of collagen to these.
Also, 660 mg/day of aspirin was administered for three days, and the blood sampled one hour after oral administration of 330 mg thereafter was measured in the same manner by using a thromboelastograph. […]

Where [5] appears, read: Comparative Example, blood with no antithrombotic agent administered.
The mark [6] stands for this setting: no Pletaal administered (Example 3), heparin 0.1 U/mL, argatroban 0.31 μg/mL, ADP 8.3 μM, collagen 10 μg/mL.
Setting [7] is: no sulpyrine administered (Example 2), heparin 0.1 U/mL, argatroban 0.31 μg/mL, ADP 8.3 μM, collagen 10 μg/mL.

Take `Nc1ncnc2c1ncn2[C@@H]1O[C@H](COP(=O)(O)OP(=O)(O)O)[C@@H](O)[C@H]1O` [ADP, adenosine diphosphate]: the “change of the R value lengthened by anticoagulant when ADP or collagen is added” value in assay [1] was “shortens significantly”. Besides, in assay [2], the “M A (maximum amplitude)” value is given as 57.9 ± 2.6.

For the compound `CC1CNc2c(cccc2S(=O)(=O)N[C@@H](CCCNC(=N)N)C(=O)N2CC[C@@H](C)C[C@@H]2C(=O)O)C1` (stereo partly shown) [ARG, argatroban], the R value is reported as 29.8 ± 11.5 in assay [1] (setting [5]); “lengthens” in assay [1] (Comparative Example, blood with no antithrombotic agent administered, listed as argatroban); 29.7 ± 10.5 in assay [1] (setting [6]); 29.8 ± 9.5 in assay [1] (setting [7]). The “A N G (rapidity of clot formation)” value in assay [3] was 44.5 ± 14.6. The values for the K in assay [3] and in assay [3] (listed as argatroban) were 9.8 ± 5.1 and “lengthen”, respectively. Further, the R is reported as 29.8 ± 11.5 in assay [3] and “lengthen” in assay [3] (listed as argatroban).

On to `CC(=O)Oc1ccccc1C(=O)O` [ASP, aspirin], for which the “assessment of efficacy of the administered dose (R value shortened by ADP and collagen or not)” value in assay [4] (81 mg/day of aspirin for three days) was “insufficient to function effectively”; in assay [4] (660 mg/day of aspirin for three days), “function adequately”. In addition, the R value in assay [4] (81 mg/day of aspirin for three days, blood sampled one hour after oral 40.5 mg, heparin 0.1 U/mL, argatroban 0.31 μg/mL) was 6.4 ± 1.5; in assay [4] (660 mg/day of aspirin for three days, blood sampled one hour after oral 330 mg, heparin 0.1 U/mL, argatroban 0.31 μg/mL), 6.67 ± 1.7.

Regarding `O=C1CCc2cc(OCCCCc3nnnn3C3CCCCC3)ccc2N1` [Cil, cilostazol], the “assessment of efficacy of the administered dose (R value shortened by ADP and collagen or not)” value in assay [4] (200 mg/day of Pletaal) is listed as “functions adequately”. In addition, the R value in assay [4] (200 mg/day of Pletaal for five days, blood sampled one hour after oral 100 mg, heparin 0.04 U/mL, argatroban 0.06 μg/mL) came to 14.5 ± 3.7. In assay [4] (Pletaal administered, 0.1 U/mL of heparin and 0.31 μg/mL of argatroban used, R value could not be determined), the “time until the blood begins to coagulate” value was “more than 3 hours”.

Turning to `Cc1c(N(C)CS(=O)(=O)[O-])c(=O)n(-c2ccccc2)n1C.[Na+]` [Sulp, sulpyrine], the “assessment of efficacy of the administered dose (R value shortened by ADP and collagen or not)” value in assay [4] (250 mg of sulpyrine injected intramuscularly) is reported as “functions adequately”. This compound also gave a R value in assay [4] (blood sampled one hour after intramuscular injection of 250 mg of sulpyrine, heparin 0.1 U/mL, argatroban 0.31 μg/mL) of 6.9 ± 2.1.

Take collagen [Col.]: in assay [1], the “change of the R value lengthened by anticoagulant when ADP or collagen is added” value is reported as “shortens significantly”. Also, in assay [2] (in min (unit assumed)), the “K (time it takes a clot to be formed)” value is recorded as 2.5 ± 0.5 and the “R (time it takes for fibrin to be formed)” value is given as 5.3 ± 1.4. For the same compound, in assay [2], the “M A (maximum amplitude)” value is given as 57.9 ± 3.9 and the “R + K” value is 7.8 ± 1.5. In assay [2] (listed as collagen), the “K (time it takes a clot to be formed)” value is reported as “no significant difference”, the “R (time it takes for fibrin to be formed)” value is “shortens significantly” and the “R + K” value is reported as “shortens significantly”.

As for heparin, the R value is 26.4 ± 10.6 in assay [1] (setting [5]); “lengthens” in assay [1] (Comparative Example, blood with no antithrombotic agent administered, listed as heparin); 28.6 ± 9.5 in assay [1] (setting [6]); 26.4 ± 10.6 in assay [1] (setting [7]). Moreover, in assay [3], the “A N G (rapidity of clot formation)” value is 39.1 ± 13.9. The K in assay [3] is 11.4 ± 6.2; in assay [3] (listed as heparin), “lengthen”. The figures for the R in assay [3] and in assay [3] (listed as heparin) were 26.4 ± 10.6 and “lengthen”, respectively.
